18 compounds from US6894061B2, “Substituted dihydrophenanthridinesulfonamides” (Wyeth, priority 2002, dated 2005) can be followed below.

Where two headings read alike, the source gives them in different places. Where only a bound is given, the exact number is not on record here.

As a reminder, the melting point is the temperature of the solid-liquid transition. A word on the EC50: it is the midpoint of the concentration-response curve.

The test system of series [1] is IL-6. In words: IL-6 test procedure (IL-6 ELISA of media) in Ad5-wt-ERα infected HAECT-1 cells. The conditions noted are these: Homo sapiens, HAECT1, IL-1β; for Emax: read-out: Interleukin-6 Efficacy (%); for IC50: read-out: Interleukin-6 IC50. The class given is cell-based, human. The procedure:
After four hours, cells were washed with EBM-BSA and incubated overnight in the same medium. Following overnight incubation, cells were washed with EBM-BSA and infected for 2 hours with 6 mL of a 1:10 dilution of Ad5-3x(NFκB).Luc virus (Adenovirus luciferase expression vector driven by 3 repeats of the MHC NFκb site 5′ to the thymidine kinase promoter) in EBM-BSA. After two hours, cells were washed and incubated at 34° C. for 1 hour. […] Control (no ER infection) cells were processed as above without Ad5-wt-hERα virus infection.
ERα infected HAECT-1 cells or control cells were thawed, diluted 42× in warm EBM-BSA, plated into 96-well plates at 0.1 mL/well and incubated for 4 hours at 34° C. Test compounds were added to the cells as 2× stocks in EBM-BSA containing 2 ng/mL IL-1β (R&D Systems) and the 96-well plates were returned to the incubator (34° C.). After 15-20 hours, 100 μL aliquots of media were removed from the cells and assayed for IL-6 content using a BioSource human IL-6 ELISA Kit. Cells were subsequently washed with 300 μL of Dulbecco's phosphate buffered saline and lysed in 50 μL of Cell Culture Lysis Reagent (Promega). Luciferase was determined on a Wallac Victor^2 Luminometer (Gaithersburg, Md.) using 10 μL of lysate and mixing with 100 μL of Promega Luciferase Assay reagent. Creatine kinase was determined from the rate of increase in A340 following addition of 100 μL of CK assay reagent (Sigma, cat. No 47-10) to the remainder of the cell lysate.
For IC50 and EC50 calculations, mean IL-6, luciferase or CK values versus log10 of the compound concentration were fitted to a four parameter logistic equation. The IC50/EC50 value, ‘Hill slope’, upper and lower limits of the curve were iteratively estimated.
In general terms: An ELISA detects its analyte on a solid surface through an enzyme-linked reagent.

Series [2] relates to ER/NF-κB. In words: ER/NF-κB luciferase reporter in Ad5-wt-ERα infected HAECT-1 cells. Type of series: cell-based, human. The settings on record: Homo sapiens, HAECT1, IL-1β; for Emax: read-out: ER/NFκB Efficacy (%)*; for IC50: read-out: ER/NFκB IC50. Background: A reporter such as luciferase makes a cellular process visible.
Series [3] concerns creatine kinase. In words: Creatine kinase (CK) test procedure in Ad5-wt-ERα infected HAECT-1 cells. The class given is cell-based, human. The settings on record: Homo sapiens.
The mark [4] stands for this setting: HAECT1, Ad5-wt-ERα infected HAECT-1 cells, read-out: Creatin Kinase EC50.
[5] abbreviates: HAECT1, Ad5-wt-ERα infected HAECT-1 cells, read-out: Creatin Kinase Efficacy (%).

The compound `C[C@H]1c2cc(F)ccc2-c2ccccc2N1S(=O)(=O)c1ccc(O)cc1` [Example 33, 4-{[(S)-8-Fluoro-6-methylphenanthridin-5(6H)-yl]sulfonyl}phenol] had a melting point of 193 °C. Further, in series [1], the Emax is 108% and the IC50 was found to be 23.4 nM. In addition, in series [2], the Emax came out at 99% and the IC50 amounted to 33 nM. Also, in series [3] (setting [4]), the 50% effective concentration (EC50) was found to be 91 nM. Besides, the Emax in series [3] (setting [5]) amounted to 21%.
With `C[C@@H]1c2cc(F)ccc2-c2ccccc2N1S(=O)(=O)c1ccc(O)cc1` [Example 34, 4-{[(R)-8-Fluoro-6-methylphenanthridin-5(6H)-yl]sulfonyl}phenol], the melting point was determined as 193 °C. For the same compound, the Emax in series [1] came out at 35%. Besides, in series [2], the Emax is 89% and the IC50 is 2840 nM. In addition, the Emax at 10 µM in series [3] (HAECT1, @10 μM, Ad5-wt-ERα infected HAECT-1 cells, read-out: Creatin Kinase Efficacy (%)) is less than 35%.
As for `CC1c2ccccc2-c2ccc(F)cc2N1S(=O)(=O)c1ccc(O)cc1` (stereo not drawn) [Example 105, 4-[(3-Fluoro-6-methylphenanthridin-5(6H)-yl)sulfonyl]phenol], the melting point lay in the range of 162 to 165 °C. Besides, in series [1], the Emax is greater than 100% and the IC50 came to 92 nM. Further, the EC50 in series [3] (setting [4]) was determined as 32 nM. Further, the Emax in series [3] (setting [5]) stood at 17%.
Compound `CC1c2ccccc2-c2ccc(F)cc2N1S(=O)(=O)c1cccc(O)c1` (stereo not drawn) [Example 106, 3-[(3-Fluoro-6-methylphenanthridin-5(6H)-yl)sulfonyl]phenol] gave a melting point of 164 to 167 °C. For the same compound, in series [1], the Emax worked out at 104% and the IC50 was determined as 43 nM. The EC50 in series [3] (setting [4]) is 1420 nM. Further, the Emax in series [3] (setting [5]) stood at 22%.
The compound `C[C@@H]1c2ccccc2-c2ccc(F)cc2N1S(=O)(=O)c1ccc(O)cc1O` [Example 110, 4-{[(6R)-3-Fluoro-6-methylphenanthridin-5(6H)-yl]sulfonyl}benzene-1,3-diol] came in with a melting point of 150 to 152 °C. Further, in series [1], the Emax is 38% and the IC50 was found to be 2340 nM. The EC50 in series [3] (setting [4]) worked out at 954 nM. Besides, in series [3] (setting [5]), the Emax is -7%.
The corresponding values for `C[C@H]1c2ccccc2-c2ccc(F)cc2N1S(=O)(=O)c1ccc(O)cc1O` [Example 111, 4-{[(6S)-3-Fluoro-6-methylphenanthridin-5(6H)-yl]sulfonyl}benzene-1,3-diol] are 151 to 153 °C, 114%, 22 nM, 102 nM and 33%.
In turn, `CC1c2ccccc2-c2cc(F)ccc2N1S(=O)(=O)c1ccc(O)cc1` (stereo not drawn) [Example 112, 4-[(2-Fluoro-6-methylphenanthridin-5(6H)-yl)sulfonyl]phenol] registered a melting point of 216 to 218 °C. Also, in series [1], the Emax was 100% and the IC50 came to 175 nM. In addition, in series [3] (setting [4]), the half-maximal effective concentration (EC50) is 337 nM. In addition, the Emax in series [3] (setting [5]) amounted to 1%.
For `CC1c2ccccc2-c2cc(F)ccc2N1S(=O)(=O)c1cccc(O)c1` (stereo not drawn) [Example 113, 3-[(2-Fluoro-6-methylphenanthridin-5(6H)-yl)sulfonyl]phenol], the melting point fell in the range of 195 to 196 °C. Also, in series [1], the Emax came out at 100% and the IC50 came to 173 nM. Further, the EC50 in series [3] (setting [4]) stood at 284 nM. In series [3] (setting [5]), the Emax turned out to be 40%.
For `CC1c2ccc(F)cc2-c2ccc(F)cc2N1S(=O)(=O)c1cccc(O)c1` (stereo not drawn) [Example 115, 3-[(3,9-Difluoro-6-methylphenanthridin-5(6H)-yl)sulfonyl]phenol], in that order: 167.2 to 173 °C, 102%, 81 nM, 102 nM and 16%.
In the case of `CC1c2ccc(F)cc2-c2cc(F)ccc2N1S(=O)(=O)c1ccc(O)cc1` (stereo not drawn) [Example 116, 4-[(2,9-Difluoro-6-methylphenanthridin-5(6H)-yl)sulfonyl]phenol], the melting point is 194 to 196 °C. Further, in series [1], the Emax was 99% and the IC50 is 130 nM. Further, the EC50 in series [3] (setting [4]) worked out at 326 nM. Also, the Emax in series [3] (setting [5]) came to 23%.
For `CC1c2ccc(F)cc2-c2cc(F)ccc2N1S(=O)(=O)c1cccc(O)c1` (stereo not drawn) [Example 117, 3-[(2,9-Difluoro-6-methylphenanthridin-5(6H)-yl)sulfonyl]phenol], in that order: 165.5 to 171 °C, 101%, 104 nM, 40 nM and 8%.
In turn, `CC1c2ccccc2-c2ccc(Cl)cc2N1S(=O)(=O)c1cccc(O)c1` (stereo not drawn) [Example 118, 3-[(3-Chloro-6-methylphenanthridin-5(6H)-yl)sulfonyl]phenol] gave a melting point of 215 °C. Also, in series [1], the Emax amounted to 103% and the IC50 amounted to 96 nM. Moreover, the Emax in series [3] (setting [5]) was -16%.
For `C[C@@H]1c2ccccc2-c2ccc(Cl)cc2N1S(=O)(=O)c1cccc(O)c1` [Example 119, 3-{[(6R)-3-Chloro-6-methylphenanthridin-5(6H)-yl]sulfonyl}phenol], the melting point fell in the range of 220.9 to 223 °C. In addition, in series [1], the Emax is 35% and the IC50 stood at 18 nM. Besides, the Emax in series [3] (setting [5]) worked out at 21%.
Compound `CC1c2ccccc2-c2ccc(Cl)cc2N1S(=O)(=O)c1ccc(O)cc1` (stereo not drawn) [Example 121, 4-[(3-Chloro-6-methylphenanthridin-5(6H)-yl)sulfonyl]phenol] yielded a melting point of 204 °C. Further, in series [1], the Emax amounted to 113% and the IC50 is 30 nM. For the same compound, in series [3] (setting [4]), the EC50 came out at 107 nM. Moreover, the Emax in series [3] (setting [5]) was found to be 29%.
Regarding `C[C@H]1c2ccccc2-c2ccc(Cl)cc2N1S(=O)(=O)c1ccc(O)cc1` [Example 123, 4-{[(6S)-3-Chloro-6-methylphenanthridin-5(6H)-yl]sulfonyl}phenol], the melting point was in the range of 213.5 to 220 °C. Further, in series [1], the Emax turned out to be 154% and the IC50 was determined as 7 nM. Further, in series [3] (setting [5]), the Emax was found to be 2%.
`C[C@@H]1c2ccccc2-c2ccc(Cl)cc2N1S(=O)(=O)c1ccc(O)cc1O` [Example 124, 4-{[(6R)-3-Chloro-6-methylphenanthridin-5(6H)-yl]sulfonyl}benzene-1,3-diol] gave a melting point of 178.2 to 182 °C. In addition, in series [1], the Emax is 19% and the IC50 worked out at 224 nM. The EC50 in series [3] (setting [4]) came to 624 nM. Moreover, the Emax in series [3] (setting [5]) turned out to be 4%.
The corresponding values for `C[C@H]1c2cc(F)ccc2-c2ccccc2N1S(=O)(=O)c1ccc(OS(N)(=O)=O)cc1` [Example 126, 4-{[(6S)-8-Fluoro-6-methylphenanthridin-5(6H)-yl]sulfonyl}phenyl sulfamate] are 166.5 to 167 °C, 99%, 40 nM, 661 nM and 61%.
In the case of `C[C@]12CC[C@@H]3c4ccc(O)cc4CC[C@H]3[C@@H]1CC[C@@H]2O` [Example E2, 17β-estradiol, reference compound], the IC50 in series [1] and in series [2] was roughly 1 nM each time. The EC50 in series [3] (HAECT1, read-out: Creatin Kinase EC50) came out at 5.8 nM.
